Data as given in patent US12691112B2, “FGFR tyrosine kinase inhibitors for the treatment of urothelial carcinoma” (Janssen Pharmaceutica NV, priority 2019, dated 2026).

Legend:
[1] = system: metastatic or surgically unresectable urothelial cancer harboring select FGFR genetic alterations; assay: Phase 2 study NCT02365597: overall survival (Kaplan-Meier); format: in vivo, human
Experimental: The term “overall survival” is defined as the time from first dose to the date of death. Data for patients who are alive or have unknown status is censored at the last date on which the patient is known to be alive.
Patients were contacted every 12 weeks for survival assessment.
The study was designed to enroll 180 patients with specified FGFR alterations. Of these, ≥88 were required in the selected regimen. […] Responses were assessed by investigators and an independent radiological review committee. Progression-free survival and overall survival were estimated using Kaplan-Meier product limit method. Data from patients who were progression free and alive or with unknown status were censored at last tumor assessment. Efficacy end points were analysed at primary analysis cut-off.

serum phosphate = assay: Pharmacodynamics: serum phosphate; format: in vivo, human; conditions: consequence of FGFR inhibition
Text: To manage phosphate elevation, phosphate binders were permitted. Avoid concomitant use with agents that can alter serum phosphate levels before the initial dose increase period based on serum phosphate levels.

[2] = Effect of food on pharmacokinetics in healthy subjects; format: in vivo, human; conditions: high-fat and high-calorie meal
QTc interval = conditions: 187 patients with cancer
[3] = FGFR fusions (excluding mutations), 6 mg QD
[4] = FGFR fusions (excluding mutations), 8 mg QD
[5] = FGFR fusions (excluding mutations), 10 mg 7 on/7 off
[6] = FGFR fusions (excluding mutations), Total
[7] = FGFR mutations (excluding fusions), 6 mg QD
[8] = FGFR mutations (excluding fusions), 8 mg QD
[9] = FGFR mutations (excluding fusions), 10 mg 7 on/7 off
[10] = FGFR mutations (excluding fusions), Total
[11] = FGFR mutations and fusions, 6 mg QD
[12] = FGFR mutations and fusions, 10 mg 7 on/7 off
[13] = FGFR mutations and fusions, Total

Structure (SMILES): COc1cc(OC)cc(N(CCNC(C)C)c2ccc3ncc(-c4cnn(C)c4)nc3c2)c1 [erdafitinib, N-(3,5-dimethoxy-phenyl)-N′-(1-methylethyl)-N-[3-(1-methyl-1H-pyrazol-4-yl)quinoxalin-6-yl]ethane-1,2-diamine]
- 6-month overall survival rate (95% CI) [1, 3]: 0.80 (0.41, 0.95)
- 12-month overall survival rate (95% CI) [1, 3]: 0.46 (0.14, 0.73)
- 18-month overall survival rate (95% CI) [1, 3]: 0.46 (0.14, 0.73)
- Overall survival, Median (95% CI) [1, 3]: 9.33 (0.46, NE) months
- Overall survival, Q1 [1, 3]: 7.92 months
- Overall survival, Q3 [1, 3]: 18.96 months
- 6-month overall survival rate (95% CI) [1, 4]: 0.77 (0.54, 0.90)
- 12-month overall survival rate (95% CI) [1, 4]: 0.46 (0.24, 0.66)
- Overall survival, Median (95% CI) [1, 4]: 10.32 (6.05, NE) months
- Overall survival, Q1 [1, 4]: 6.05 months
- Overall survival, Q3 [1, 4]: 14.03 months
- 6-month overall survival rate (95% CI) [1, 5]: 1.00 (1.00, 1.00)
- 12-month overall survival rate (95% CI) [1, 5]: 0.50 (0.01, 0.91)
- 18-month overall survival rate (95% CI) [1, 5]: 0 (NE, NE)
- 24-month overall survival rate (95% CI) [1, 5]: 0 (NE, NE)
- Overall survival, Median (95% CI) [1, 5]: 10.37 (7.72, 13.01) months
- Overall survival, Q1 [1, 5]: 7.72 months
- Overall survival, Q3 [1, 5]: 13.01 months
- 6-month overall survival rate (95% CI) [1, 6]: 0.80 (0.62, 0.90)
- 12-month overall survival rate (95% CI) [1, 6]: 0.46 (0.28, 0.62)
- 18-month overall survival rate (95% CI) [1, 6]: 0.31 (0.12, 0.52)
- Overall survival, Median (95% CI) [1, 6]: 9.33 (7.72, 18.96) months
- Overall survival, Q1 [1, 6]: 6.97 months
- Overall survival, Q3 [1, 6]: 18.96 months
- 6-month overall survival rate (95% CI) [1, 7]: 0.68 (0.54, 0.79)
- 12-month overall survival rate (95% CI) [1, 7]: 0.30 (0.18, 0.43)
- 18-month overall survival rate (95% CI) [1, 7]: 0.21 (0.11, 0.33)
- Overall survival, Median (95% CI) [1, 7]: 8.31 (6.41, 9.63) months
- Overall survival, Q1 [1, 7]: 5.13 months
- Overall survival, Q3 [1, 7]: 14.82 months
- 6-month overall survival rate (95% CI) [1, 8]: 0.74 (0.61, 0.83)
- 12-month overall survival rate (95% CI) [1, 8]: 0.54 (0.38, 0.68)
- Overall survival, Median (95% CI) [1, 8]: 12.02 (8.64, NE) months
- Overall survival, Q1 [1, 8]: 5.98, NE months
- 6-month overall survival rate (95% CI) [1, 9]: 0.70 (0.47, 0.84)
- 12-month overall survival rate (95% CI) [1, 9]: 0.31 (0.14, 0.50)
- 18-month overall survival rate (95% CI) [1, 9]: 0.26 (0.11, 0.45)
- 24-month overall survival rate (95% CI) [1, 9]: 0.22 (0.08, 0.40)
- Overall survival, Median (95% CI) [1, 9]: 7.39 (5.78, 10.71) months
- Overall survival, Q1 [1, 9]: 5.55 months
- Overall survival, Q3 [1, 9]: 18.76 months
- 6-month overall survival rate (95% CI) [1, 10]: 0.71 (0.63, 0.78)
- 12-month overall survival rate (95% CI) [1, 10]: 0.39 (0.30, 0.48)
- 18-month overall survival rate (95% CI) [1, 10]: 0.29 (0.20, 0.39)
- 24-month overall survival rate (95% CI) [1, 10]: 0.24 (0.15, 0.35)
- Overall survival, Median (95% CI) [1, 10]: 9.10 (7.46, 11.86) months
- Overall survival, Q1 [1, 10]: 5.49 months
- Overall survival, Q3 [1, 10]: 18.76 months
- 6-month overall survival rate (95% CI) [1, 11]: 0.75 (0.13, 0.96)
- 12-month overall survival rate (95% CI) [1, 11]: 0.75 (0.13, 0.96)
- 18-month overall survival rate (95% CI) [1, 11]: 0.38 (0.01, 0.81)
- Overall survival, Median (95% CI) [1, 11]: 12.65 (0.39, NE) months
- Overall survival, Q1 [1, 11]: 6.52, NE months
- 6-month overall survival rate (95% CI) [1, 12]: 0.67 (0.05, 0.95)
- 12-month overall survival rate (95% CI) [1, 12]: 0 (NE, NE)
- 18-month overall survival rate (95% CI) [1, 12]: 0 (NE, NE)
- 24-month overall survival rate (95% CI) [1, 12]: 0 (NE, NE)
- Overall survival, Median (95% CI) [1, 12]: 6.21 (3.98, 9.10) months
- Overall survival, Q1 [1, 12]: 3.98 months
- Overall survival, Q3 [1, 12]: 9.10 months
- 6-month overall survival rate (95% CI) [1, 13]: 0.71 (0.26, 0.92)
- 12-month overall survival rate (95% CI) [1, 13]: 0.43 (0.10, 0.73)
- 18-month overall survival rate (95% CI) [1, 13]: 0.21 (0.01, 0.59)
- Overall survival, Median (95% CI) [1, 13]: 9.10 (0.39, NE) months
- Overall survival, Q1 [1, 13]: 3.98 months
- Overall survival, Q3 [1, 13]: 12.65 months
- Median overall survival (95% CI) ([1]; Regimen 1, 10 mg intermittent): 7.5 (6.0 to 10.7) months
- overall survival rate at 12 months ([1]; Regimen 1, 10 mg intermittent): 31%
- Median overall survival (95% CI) ([1]; Regimen 2, 6 mg continuous): 8.6 (6.5 to 9.7) months
- overall survival rate at 12 months ([1]; Regimen 2, 6 mg continuous): 33%
- Survival rate at 12 months ([1]; Regimen 3, 8 mg continuous): 55%
- median overall survival ([1]; Regimen 3, 8 mg continuous): 13.8 months
- effect on serum phosphate level (serum phosphate): increased serum phosphate level
- effect of food on pharmacokinetics [2]: No clinically meaningful differences
- effect on the QTc interval (QTc interval): no large effect (i.e., >20 ms)
